Experimental data from publication PMC13327620, “A Deep‐Red‐Absorbing Osmium(II) Complex as a Photosensitizer for Photodynamic Therapy Inducing Immunogenic Cell Death” (Angewandte Chemie (International Ed. in English), 2026).

What was measured:
[1] = system: HMGB‐1; experiment: Immunofluorescence staining of HMGB-1 (release) in MCA205 cells; type: cell-based, mouse; settings: MCA205, PS at IC50, illumination at 740 nm
Procedure: We then used the corresponding IC50 values of each PS to evaluate their in vitro ICD induction on MCA205 cells. […] As a result, we chose Ce6 as the positive control for our subsequent in vivo tests on MCA205 cells.
Scientific, Catalog no.15 5411) at a d ensity of 8,00 0 cells p er well and cultu red fo r 24 h at 37 °C with 5 % CO2. T he cells wer e then treated with a solution of the compounds at a concentration corresponding to the IC50 for 4 h. After refreshing the medium, cells were subjected to irradiation and incubated for an additional 12 h. Subsequently, the cells were fix ed with 4% paraformaldehyde and immunostained with Anti- Calreticulin antibody (Abcam, Catalog no. ab2907) diluted 1/1000 at 4 °C overnight. Cells were then washed three times with PBS, treated with Goat Anti- Rabbit IgG H&L (Alexa […]
temperature in the dark, washed in PBS and treat ed with 10 µg/mL Hoechst for 15 min.
After a final wash, cells were analyzed by confocal microscopy as det ailed above.
Immunofluorescence st aining of HMGB-1
CT26 or MCA205 cells were seeded in Lab -Te k ® Chambered Coverglass System (Thermo Fisher Scientific, Catalog no.155411) at a density of 8,000 cells per well and cultured for 24 h at 37 °C with 5% CO2. The cells were then treated with a solution of the compounds at a concentration corresponding to the IC50 for 4 h. […]

[2] = system: mouse fibroblast cells (NIH/3T3); experiment: Resazurin cell viability assay, dark toxicity; type: cell-based; settings: NIH3T3, NIH/3T3, dark
Procedure: (§1) (100 U ml−1), streptomycin (100 U ml−1), and 1% L-glutamine. The murine fibrosarcom a (MCA205) cells were cultured in RPMI 1640 medium with 10% fetal bovine serum (FBS), penicillin (100 U ml−1), streptomycin (100 U ml−1), and 1% L-glutamine. All cells were incubated at 37 °C in a humidified atmosphere with 5 % CO2.
(§2) Normoxia. The in vitro viability of cells exposed to the complexes was determined using a resazurin assay. C ells were seeded in 96-well plates at densities of 4,000 cells/well for CT26, MC A205 and U-87 MG cells, and 8,000 cells/well for MRC-5 and NIH/3T3 cells. A fter 24 h of growth at 37 °C wit h 5% CO2, the medium was replaced with fresh medium containing various concentrations of the compounds . Following a 4- h incubation in the dark, the medium was refres hed , and the plates were exposed to irradiation usinga LUM OS -BIO photoreactor (At las Photonics).N on- ir rad iated plates were similarly refr eshed with medium and kept in the dark for the same duration. After a 40- h r ecov ery period, a f reshly pr epar ed resazurin solution (0.2 mg/mL) was added to each well, and the plates were left in the dark for 4 h before analysis on a B i o Te k Cytation 5 Cell Imaging Multimode Reader (Agil ent Technologies).
(§3) Hypoxia.Hypoxia cells were from well -grown normoxia cells and cultured for at least two weeks before use. […]

[3] = system: human fibroblast cells (MRC-5); experiment: Resazurin cell viability assay, dark toxicity; type: cell-based; settings: MRC5, MRC-5, dark
Procedure: as §1, §2, §3

[4] = system: mouse fibrosarcoma (MCA205) cells; experiment: Resazurin cell viability assay, phototoxicity; type: cell-based; settings: MCA-205, light or radiation study, 1 h, MCA205, 740 nm, 60 min, 12.60 J/cm2
Procedure: as §1
as §2, with “Technologies). […]” for “Technologies).”

With `C=Cc1c(C)c2cc3nc(c(CC(=O)O)c4[nH]c(cc5nc(cc1[nH]2)C(C)=C5CC)c(C)c4C(=O)O)[C@@H](CCC(=O)O)[C@@H]3C` [Ce6, chlorin e6] the “HMGB‐1 release” value [1] was “significantly promoted”, the IC50 [2] was greater than 100 µM and the IC50 [3] was greater than 100 µM. The IC50 [4] was 1.77 ± 0.38 µM.
